Laboratory results: ChEMBL document CHEMBL5247655, “Simplified Derivatives of Tetrandrine as Potent and Specific P-gp Inhibitors to Reverse Multidrug Resistance in Cancer Chemotherapy” (J Med Chem, 2023)
≈ marks a conversion by molar mass, not a printed value. Calls of active or inactive are those of the source. No cut-off for these calls is given here.

Experiments:
[1] = system: ECa-109 cell line; test: Cytotoxicity against vincristine resistant human Eca-109 cells incubated for 48 hrs by CCK-8 method relative to control; assay type: functional; design: concentration or dose not given beside the values
[2] = Solubility of the compound in water at 25 degree C by shake flask method based UV-spectrophotometric method; assay type: physicochemical
[3] = Cytotoxicity against human GES1 cells incubated for 48 hrs by CCK-8 method; assay type: toxicity, cell-based
[4] = system: ECa-109 cell line; test: Reversal of vincristine-resistance in human Eca-109 cells assessed as fold reversal by measuring cell viability at 5 uM incubated for 48 hrs by CCK-8 method relative to vincristine alone; assay type: functional
[5] = system: ECa-109 cell line; test: Induction of apoptosis in vincristine resistant human Eca-109 cells assessed as viable cells at 1 uM incubated for 24 hrs by AnnexinV-FITC/PI staining based flow cytometric analysis (reference value: 90.3%); assay type: functional; conditions: read-out: Activity
[6] = system: ECa-109 cell line; test: Induction of apoptosis in vincristine resistant human Eca-109 cells assessed as early apoptotic cells at 5 uM incubated for 24 hrs by AnnexinV-FITC/PI staining based flow cytometric analysis (reference value: 2.30%); assay type: functional
[7] = system: ECa-109 cell line; test: Induction of apoptosis in vincristine resistant human Eca-109 cells assessed as necrotic cells at 5 uM incubated for 24 hrs by AnnexinV-FITC/PI staining based flow cytometric analysis (reference value: 0.25%); assay type: functional
[8] = system: ECa-109 cell line; test: Induction of apoptosis in vincristine resistant human Eca-109 cells assessed as viable cells at 1 uM incubated for 24 hrs in presence of vincristine by AnnexinV-FITC/PI staining based flow cytometric analysis (reference value: 89.2%); assay type: functional; conditions: read-out: Activity
[9] = system: ECa-109 cell line; test: Induction of apoptosis in vincristine resistant human Eca-109 cells assessed as early apoptotic cells at 2.5 uM incubated for 24 hrs in presence of vincristine by AnnexinV-FITC/PI staining based flow cytometric analysis (reference value: 4.43%); assay type: functional
[10] = Inhibition of clone formation in vincristine resistant human Eca-109 cells at 2 uM incubated for 48 hrs by crystal violet staining based analysis; assay type: functional
[11] = system: ECa-109 cell line; test: Synergistic anticancer activity in vincristine resistant human Eca-109 cells assessed as combination index at 10:1 compound to vincristine ratio measured after 48 hrs; assay type: functional
[12] = system: ECa-109 cell line; test: Synergistic antitumor activity against in vincristine resistant p-gp overexpressing human Eca-109 cells xenografted in nude mouse assessed as inhibition of tumor proliferation at 30 mg/kg, IG administered every two days for 21 days in presence of vincristine; assay type: functional, organism-based; conditions: time 21.0 day
[13] = system: ECa-109 cell line; test: Synergistic antitumor activity against in vincristine resistant p-gp overexpressing human Eca-109 cells xenografted in nude mouse assessed as inhibition of tumor growth rate at 30 mg/kg, IG administered every two days for 21 days in presence of vincristine relative to control; assay type: functional; design: scale not given: the % may be the effect or the level left; conditions: time 21 day
[14] = Toxicity in nude mouse assessed as change in body weight at 30 mg/kg administered every 2 days for 21 days in presence of vincristine; assay type: organism-based; conditions: in vivo, 48 h, time 2 day
[15] = Hepatotoxicity in nude mouse at 30 mg/kg, IG administered every two days for 21 days in presence of vincristine by H and E staining based analysis; assay type: toxicity, organism-based; conditions: in vivo, po, 504 h, time 21 day
[16] = Tmax in Sprague-Dawley rat at 3 mg/kg, iv measured upto 24 hrs by UPLC/MS/MS analysis; assay type: ADME, organism-based; conditions: in vivo
[17] = Cmax in Sprague-Dawley rat at 3 mg/kg, iv measured upto 24 hrs by UPLC/MS/MS analysis; assay type: ADME, organism-based; design: time < 24 hrs, dose 3 mg/kg, route iv; conditions: in vivo
[18] = Cmax in Sprague-Dawley rat at 30 mg/kg, po measured upto 24 hrs by UPLC/MS/MS analysis; assay type: ADME, organism-based; design: time < 24 hrs, dose 30 mg/kg, route po; conditions: in vivo
[19] = Terminal elimination half life in Sprague-Dawley rat at 3 mg/kg, iv measured upto 24 hrs by UPLC/MS/MS analysis; assay type: ADME, organism-based; conditions: in vivo, read-out: LambdaZ (converted)
[20] = MRT (0 to infinity) in Sprague-Dawley rat at 3 mg/kg, iv measured upto 24 hrs by UPLC/MS/MS analysis; assay type: ADME, organism-based; conditions: in vivo
[21] = AUC (0 to infinity) in Sprague-Dawley rat at 3 mg/kg, iv measured upto 24 hrs by UPLC/MS/MS analysis; assay type: ADME, organism-based; design: time < 24 hrs, dose 3 mg/kg, route iv; conditions: in vivo
[22] = AUC (0 to infinity) in Sprague-Dawley rat at 30 mg/kg, po measured upto 24 hrs by UPLC/MS/MS analysis; assay type: ADME, organism-based; design: time < 24 hrs, dose 30 mg/kg, route po; conditions: in vivo
[23] = Apparent volume of distribution during terminal phase in Sprague-Dawley rat at 3 mg/kg, iv measured upto 24 hrs by UPLC/MS/MS analysis; assay type: ADME, organism-based; conditions: in vivo
[24] = Apparent oral clearance in Sprague-Dawley rat at 3 mg/kg, iv measured upto 24 hrs by UPLC/MS/MS analysis; assay type: ADME, organism-based; conditions: in vivo
[25] = target: T1, ATP-dependent translocase ABCB1 (Homo sapiens, UniProt P08183); test: Inhibition of P-gp efflux in vincristine resistant human Eca-109 cells assessed as increase in rhodamine 123 fluorescence intensity incubated for 3 hrs; assay type: cell-based; conditions: eca-109, 3 h, dose 0-45 µM
[26] = target: T1, ATP-dependent translocase ABCB1; test: Inhibition of P-gp efflux in vincristine resistant human Eca-109 cells assessed as effect on accumulation of H33342; assay type: cell-based
[27] = target: T1, ATP-dependent translocase ABCB1; test: Inhibition of P-gp efflux in vincristine resistant human Eca-109 cells assessed as increase in intracellular accumulation of rhodamine123 at 1 to 5 uM incubated for 1 hr by flow cytometry analysis; assay type: cell-based; conditions: eca-109, 1 h, dose 1-5 µM
[28] = target: T2, Broad substrate specificity ATP-binding cassette transporter ABCG2 (Homo sapiens, UniProt Q9UNQ0); test: Binding affinity to ABCG2 in vincristine resistant human Eca-109 cells assessed as stabilization of protein at 100 uM incubated for 30 mins by thermal shift assay; assay type: cell-based; conditions: eca-109, 0.5 h
T2 sequence (Q9UNQ0 whole entry): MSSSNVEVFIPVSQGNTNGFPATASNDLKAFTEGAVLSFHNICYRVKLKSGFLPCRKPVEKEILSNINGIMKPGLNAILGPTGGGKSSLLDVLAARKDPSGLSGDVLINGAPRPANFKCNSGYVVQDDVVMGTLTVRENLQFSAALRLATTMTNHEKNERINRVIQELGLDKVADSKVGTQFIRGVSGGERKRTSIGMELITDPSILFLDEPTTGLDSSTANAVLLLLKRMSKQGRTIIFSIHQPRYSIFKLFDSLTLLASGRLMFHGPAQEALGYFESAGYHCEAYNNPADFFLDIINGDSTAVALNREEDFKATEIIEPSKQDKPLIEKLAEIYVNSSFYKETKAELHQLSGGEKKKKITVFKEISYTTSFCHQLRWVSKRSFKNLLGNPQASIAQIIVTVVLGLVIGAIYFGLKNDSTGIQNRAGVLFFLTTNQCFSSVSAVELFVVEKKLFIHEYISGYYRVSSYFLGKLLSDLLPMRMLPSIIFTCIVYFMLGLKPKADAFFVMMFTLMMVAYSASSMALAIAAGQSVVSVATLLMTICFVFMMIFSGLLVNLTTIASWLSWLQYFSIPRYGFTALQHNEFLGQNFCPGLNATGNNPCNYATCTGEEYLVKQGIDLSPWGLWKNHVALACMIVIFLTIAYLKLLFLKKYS

T1 sequence (P08183 whole entry): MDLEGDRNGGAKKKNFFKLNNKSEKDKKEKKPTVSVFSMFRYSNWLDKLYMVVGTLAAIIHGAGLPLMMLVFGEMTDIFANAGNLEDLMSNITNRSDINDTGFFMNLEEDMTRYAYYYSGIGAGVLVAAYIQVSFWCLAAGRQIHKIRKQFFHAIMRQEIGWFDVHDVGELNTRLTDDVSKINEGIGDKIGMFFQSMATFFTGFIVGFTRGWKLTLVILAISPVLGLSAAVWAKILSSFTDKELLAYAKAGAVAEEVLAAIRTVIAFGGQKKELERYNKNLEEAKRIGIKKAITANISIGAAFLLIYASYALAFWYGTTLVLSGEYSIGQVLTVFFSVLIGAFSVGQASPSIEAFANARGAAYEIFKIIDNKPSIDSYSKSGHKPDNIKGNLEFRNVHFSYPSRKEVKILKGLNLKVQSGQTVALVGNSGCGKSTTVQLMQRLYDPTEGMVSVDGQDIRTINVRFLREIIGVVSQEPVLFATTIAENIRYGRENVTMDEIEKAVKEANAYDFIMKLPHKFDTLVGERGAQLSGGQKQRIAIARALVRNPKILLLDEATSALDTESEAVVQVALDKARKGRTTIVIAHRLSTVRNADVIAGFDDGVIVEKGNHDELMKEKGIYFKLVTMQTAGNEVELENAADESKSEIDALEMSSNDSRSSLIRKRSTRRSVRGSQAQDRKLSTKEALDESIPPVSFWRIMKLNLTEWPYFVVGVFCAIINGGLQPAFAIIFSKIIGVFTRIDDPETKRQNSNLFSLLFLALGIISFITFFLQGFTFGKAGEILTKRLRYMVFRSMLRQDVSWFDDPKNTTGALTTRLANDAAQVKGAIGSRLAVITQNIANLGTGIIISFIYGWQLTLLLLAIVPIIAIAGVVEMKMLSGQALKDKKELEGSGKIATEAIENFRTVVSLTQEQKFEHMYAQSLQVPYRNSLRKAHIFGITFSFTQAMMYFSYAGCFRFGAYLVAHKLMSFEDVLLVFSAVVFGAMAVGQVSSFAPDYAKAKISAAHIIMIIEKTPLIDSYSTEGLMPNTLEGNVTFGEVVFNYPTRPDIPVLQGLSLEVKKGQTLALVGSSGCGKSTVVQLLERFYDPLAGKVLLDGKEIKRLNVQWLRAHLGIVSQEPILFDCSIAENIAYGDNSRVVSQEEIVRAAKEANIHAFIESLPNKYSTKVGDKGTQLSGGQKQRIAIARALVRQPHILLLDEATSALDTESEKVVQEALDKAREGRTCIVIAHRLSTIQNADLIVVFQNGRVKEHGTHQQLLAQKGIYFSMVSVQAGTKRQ

For COc1cc2c(cc1OC)C(Cc1ccc(OC)c(OCc3ccccc3)c1)N(C)CC2 (stereo not drawn), the Activity [1] was 95.3%, the solubility thermodynamic [2] was 68 µg/mL (≈ 157 µM) and the IC50 at 48 h [3] was greater than 50 µM. For the same compound, the “fold change (FC)” value [4] was 690.6, the viability at 1 µM [5] was 91.6% and the Activity [6] was 2.51%. The Activity [7] was 0.14%, the viability at 1 µM [8] was 76.1% and the Activity [9] was 17.8%. For the same compound, the inhibition at 2 µM [10] was 100%, the CI [11] was less than 1 and the Activity [12] was “Active”. For the same compound, the Activity [13] was 79.13%, the Activity [14] was “Non-Toxic” and the Activity [15] was “Non-Toxic”. It also gave a Tmax [16] of 0.17 h, a Cmax [17] of 1570 ng/mL and a Cmax [18] of 637 ng/mL. It also gave a k el at 24 h [19] of 4.17e-05 s⁻¹, an MRT inf [20] of 2.68 h and an AUC(0-inf) [21] of 2740 ng·h/mL. The AUC(0-inf) [22] was 2740 ng·h/mL, the Vz/F [23] was 12.84 L/kg and the CL/F [24] was 18.3 mL/min/kg. The “inhibition (INH)” value [25] was “Dose-Dependent Effect”, the “inhibition (INH)” value [26] was “Active” and the “inhibition (INH)” value [27] was “Active”. The Activity [28] was “Not Active”.
